Reference: patent publication US20120029187A1, “HALOALKYLSULFONANILIDE DERIVATIVE” (Nissan Chemical Industries, Ltd., priority 2009, published 2012)

How the values were obtained:
Format in all cases: in vivo
Italian ryegrass [1] = assay: Test Example 4: herbicidal effect in foliage treatment; conditions: dose 6.3 g/a, three weeks after application
Outline: (§1)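 14-day greenhouse-grown plants (25–30° C) sprayed on foliage with diluted EC; dose as g/a; effect graded after 3 weeks.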

large crabgrass [2] = assay: as above; conditions: dose 6.3 g/a, three weeks after application
Outline: as §1

velvetleaf [3] = assay: as above; conditions: dose 6.3 g/a, three weeks after application
Outline: as §1

redroot pigweed [4] = assay: as above; conditions: dose 6.3 g/a, three weeks after application
Outline: as §1

water foxtail [5] = assay: as above; conditions: dose 6.3 g/a, three weeks after application
Outline: as §1

common ragweed [6] = assay: as above; conditions: dose 6.3 g/a, three weeks after application
Outline: as §1

beadstraw = assay: as above; conditions: dose 6.3 g/a, three weeks after application
Outline: as §1

wild oat [7] = assay: as above; conditions: dose 6.3 g/a, three weeks after application
Outline: as §1

common lambsquater [8] = assay: as above; conditions: dose 6.3 g/a, three weeks after application
Outline: as §1

common chickweed [9] = assay: as above; conditions: dose 6.3 g/a, three weeks after application
Outline: as §1

barnyardgrass [10] = assay: as above; conditions: dose 6.3 g/a, three weeks after application
Outline: as §1

giant foxtail [11] = assay: as above; conditions: dose 6.3 g/a, three weeks after application
Outline: as §1

posumbu knotweed [12] = assay: as above; conditions: dose 6.3 g/a, three weeks after application
Outline: as §1

transplanted rice = assay: Test Example 1: preemergence treatment under submerged conditions, effect on crop; conditions: dose 2.52 g/a
Outline: (§2)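 Score 0–5 by mortality (5: ≥90%; 0: <5%), read 3 weeks post-application. Paddy-type cups: alluvial soil under 4 cm water, weeds seeded plus transplanted 2.5-leaf rice; diluted EC dosed onto water surface same day as sowing, g/a basis; greenhouse 25 to 30° C.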

bulrush [13] = assay: Test Example 1: herbicidal effects in preemergence treatment under submerged conditions; conditions: dose 2.52 g/a
Outline: as §2

ducksalad [14] = assay: as above; conditions: dose 2.52 g/a
Outline: as §2

barnyardgrass [15] = assay: as above; conditions: dose 2.52 g/a
Outline: as §2

Italian ryegrass [16] = assay: Test Example 3: herbicidal effects in soil treatment; conditions: dose 6.3 g/a
Outline: (§3)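 Seeds were sown in sterilized diluvial soil and covered with about 1.5 cm of soil. Compounds, formulated as emulsifiable concentrates and diluted with water, were sprayed evenly over the soil surface at set doses in g/a. Herbicidal effect was scored on a rating scale three weeks later.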

large crabgrass [17] = assay: as above; conditions: dose 6.3 g/a
Outline: as §3

velvetleaf [18] = assay: as above; conditions: dose 6.3 g/a
Outline: as §3

redroot pigweed [19] = assay: as above; conditions: dose 6.3 g/a
Outline: as §3

water foxtail [20] = assay: as above; conditions: dose 6.3 g/a
Outline: as §3

common ragweed [21] = assay: as above; conditions: dose 6.3 g/a
Outline: as §3

wild oat [22] = assay: as above; conditions: dose 6.3 g/a
Outline: as §3

common lambsquater [23] = assay: as above; conditions: dose 6.3 g/a
Outline: as §3

common chickweed [24] = assay: as above; conditions: dose 6.3 g/a
Outline: as §3

barnyardgrass [25] = assay: as above; conditions: dose 6.3 g/a
Outline: as §3

giant foxtail [26] = assay: as above; conditions: dose 6.3 g/a
Outline: as §3

posumbu knotweed [27] = assay: as above; conditions: dose 6.3 g/a
Outline: as §3

bulrush [28] = assay: Test Example 2: herbicidal effects during the vegetation period under submerged conditions; conditions: treatment during the vegetation period under submerged conditions; dose 2.52 g/a
Outline: (§4)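 Barnyardgrass, bulrush and ducksalad were co-sown in alluvial soil flooded to 4 cm and grown in a greenhouse at 25 to 30° C. At the 1- or 2-leaf stage, water-diluted emulsifiable concentrates went onto the water surface at set doses (g/a). Herbicidal effect was scored three weeks later on a graded scale.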

ducksalad [29] = assay: as above; conditions: treatment during the vegetation period under submerged conditions; dose 2.52 g/a
Outline: as §4

barnyardgrass [30] = assay: as above; conditions: treatment during the vegetation period under submerged conditions; dose 2.52 g/a
Outline: as §4

Structure (SMILES)	H: Italian ryegrass, herbicidal effect (Italian ryegrass [1])	D: large crabgrass, herbicidal effect (large crabgrass [2])	I: velvetleaf, herbicidal effect (velvetleaf [3])	K: redroot pigweed, herbicidal effect (redroot pigweed [4])	G: water foxtail, herbicidal effect (water foxtail [5])	J: common ragweed, herbicidal effect (common ragweed [6])	O: beadstraw, herbicidal effect (beadstraw)	F: wild oat, herbicidal effect (wild oat [7])	L: common lambsquater, herbicidal effect (common lambsquater [8])	N: common chickweed, herbicidal effect (common chickweed [9])	A: barnyardgrass, herbicidal effect (barnyardgrass [10])	E: giant foxtail, herbicidal effect (giant foxtail [11])	M: posumbu knotweed, herbicidal effect (posumbu knotweed [12])	a: transplanted rice, effect on crop (evaluation scale 0-5) (transplanted rice)	B: bulrush, herbicidal effect (evaluation scale 0-5) (bulrush [13])	C: ducksalad, herbicidal effect (evaluation scale 0-5) (ducksalad [14])	A: barnyardgrass, herbicidal effect (evaluation scale 0-5) (barnyardgrass [15])	H: Italian ryegrass, herbicidal effect (evaluation scale 0-5) (Italian ryegrass [16])	D: large crabgrass, herbicidal effect (evaluation scale 0-5) (large crabgrass [17])	I: velvetleaf, herbicidal effect (evaluation scale 0-5) (velvetleaf [18])	further results
CCOC(=O)N(c1ccccc1CN1CCS(=O)(=O)CC1=O)S(=O)(=O)C(F)(F)F [Compound I-19, 4-[2-(N-ethoxycarbonyl-N-trifluoromethanesulfonyl)aminobenzyl]-1,4-thiazinan-1,1-dioxide-3-one]	3 (mortality of at least 40% and less than 70%)	4 (mortality of at least 70% and less than 90%)	3 (mortality of at least 40% and less than 70%)	4 (mortality of at least 70% and less than 90%)	5 (mortality of 90% or above (nearly complete death))	4 (mortality of at least 70% and less than 90%)	4 (mortality of at least 70% and less than 90%)	0 (mortality of less than 5% (almost ineffective))	4 (mortality of at least 70% and less than 90%)	4 (mortality of at least 70% and less than 90%)	4 (mortality of at least 70% and less than 90%)	4 (mortality of at least 70% and less than 90%)	3 (mortality of at least 40% and less than 70%)	0 (mortality of less than 5% (almost ineffective))	5 (mortality of 90% or above (nearly complete death))	5 (mortality of 90% or above (nearly complete death))	5 (mortality of 90% or above (nearly complete death))	2 (mortality of at least 20% and less than 40%)	4 (mortality of at least 70% and less than 90%)	2 (mortality of at least 20% and less than 40%)	K: redroot pigweed, herbicidal effect (evaluation scale 0-5) (redroot pigweed [19]): 4 (mortality of at least 70% and less than 90%); G: water foxtail, herbicidal effect (evaluation scale 0-5) (water foxtail [20]): 5 (mortality of 90% or above (nearly complete death)); J: common ragweed, herbicidal effect (evaluation scale 0-5) (common ragweed [21]): 4 (mortality of at least 70% and less than 90%); F: wild oat, herbicidal effect (evaluation scale 0-5) (wild oat [22]): 0 (mortality of less than 5% (almost ineffective)); L: common lambsquater, herbicidal effect (evaluation scale 0-5) (common lambsquater [23]): 5 (mortality of 90% or above (nearly complete death)); N: common chickweed, herbicidal effect (evaluation scale 0-5) (common chickweed [24]): 5 (mortality of 90% or above (nearly complete death)); A: barnyardgrass, herbicidal effect (evaluation scale 0-5) (barnyardgrass [25]): 4 (mortality of at least 70% and less than 90%); E: giant foxtail, herbicidal effect (evaluation scale 0-5) (giant foxtail [26]): 4 (mortality of at least 70% and less than 90%); M: posumbu knotweed, herbicidal effect (evaluation scale 0-5) (posumbu knotweed [27]): 4 (mortality of at least 70% and less than 90%); B: bulrush, herbicidal effect (evaluation scale 0-5) (bulrush [28]): 5 (mortality of 90% or above (nearly complete death)); C: ducksalad, herbicidal effect (evaluation scale 0-5) (ducksalad [29]): 4 (mortality of at least 70% and less than 90%); A: barnyardgrass, herbicidal effect (evaluation scale 0-5) (barnyardgrass [30]): 3 (mortality of at least 40% and less than 70%)
O=C1CCOCN1Cc1ccccc1NS(=O)(=O)C(F)(F)F [II-1]	4 (mortality of at least 70% and less than 90%)	5 (mortality of 90% or above (nearly complete death))	5 (mortality of 90% or above (nearly complete death))	0 (mortality of less than 5% (almost ineffective))	5 (mortality of 90% or above (nearly complete death))	4 (mortality of at least 70% and less than 90%)	4 (mortality of at least 70% and less than 90%)	1 (mortality of at least 5% and less than 20%)	4 (mortality of at least 70% and less than 90%)	4 (mortality of at least 70% and less than 90%)	5 (mortality of 90% or above (nearly complete death))	5 (mortality of 90% or above (nearly complete death))	0 (mortality of less than 5% (almost ineffective))	3 (mortality of at least 40% and less than 70%)	5 (mortality of 90% or above (nearly complete death))	5 (mortality of 90% or above (nearly complete death))	5 (mortality of 90% or above (nearly complete death))	3 (mortality of at least 40% and less than 70%)	5 (mortality of 90% or above (nearly complete death))	5 (mortality of 90% or above (nearly complete death))	K: redroot pigweed, herbicidal effect (evaluation scale 0-5) (redroot pigweed [19]): 1 (mortality of at least 5% and less than 20%); G: water foxtail, herbicidal effect (evaluation scale 0-5) (water foxtail [20]): 5 (mortality of 90% or above (nearly complete death)); J: common ragweed, herbicidal effect (evaluation scale 0-5) (common ragweed [21]): 5 (mortality of 90% or above (nearly complete death)); F: wild oat, herbicidal effect (evaluation scale 0-5) (wild oat [22]): 0 (mortality of less than 5% (almost ineffective)); L: common lambsquater, herbicidal effect (evaluation scale 0-5) (common lambsquater [23]): 5 (mortality of 90% or above (nearly complete death)); N: common chickweed, herbicidal effect (evaluation scale 0-5) (common chickweed [24]): 5 (mortality of 90% or above (nearly complete death)); A: barnyardgrass, herbicidal effect (evaluation scale 0-5) (barnyardgrass [25]): 5 (mortality of 90% or above (nearly complete death)); E: giant foxtail, herbicidal effect (evaluation scale 0-5) (giant foxtail [26]): 5 (mortality of 90% or above (nearly complete death)); M: posumbu knotweed, herbicidal effect (evaluation scale 0-5) (posumbu knotweed [27]): 1 (mortality of at least 5% and less than 20%); B: bulrush, herbicidal effect (evaluation scale 0-5) (bulrush [28]): 5 (mortality of 90% or above (nearly complete death)); C: ducksalad, herbicidal effect (evaluation scale 0-5) (ducksalad [29]): 5 (mortality of 90% or above (nearly complete death)); A: barnyardgrass, herbicidal effect (evaluation scale 0-5) (barnyardgrass [30]): 5 (mortality of 90% or above (nearly complete death))
